The melting point is the temperature of the solid-liquid transition.

Some results are limits rather than exact numbers.

The compound `CCOC(=O)C(C#N)C1CC(C)(C)NC(C)(C)C1` (stereo not drawn) showed a melting point of 116 to 117 °C. Regarding `Nc1ccc(Oc2ccc3sncc3c2)cc1`, the melting point was 100 °C. The result for `CCCc1c(C(=O)O)c(=O)cc(-c2ccc(Cl)cc2)n1C` reads 184 to 187 °C; that for `O=C1C(=O)c2ccccc2C2=C1SCC1(CCN(C(=O)c3ccco3)CC1)O2`, 165 °C; that for `COc1cccc(CNC(=O)c2nc3scc(-c4cccc(-c5ccc(C(=O)O)cc5)c4)c3c(=O)[nH]2)c1`, 259 to 260 °C.

For `CC(C)N1CCN(CCN2CCC(c3cn(-c4ccc(F)cc4)c4cc(Cl)ccc34)CC2)C1=O`, the melting point stood at 134 °C. Compound `C=C1CCC2C3CCC4=C(CC=C(OC)C4)C3CCC12C` (stereo not drawn) yielded a melting point of 77 to 78 °C.

On to `O=C(c1ccccc1)c1c(-c2ccccc2)sc2cc(O)ccc12`, for which the melting point is 221 to 222 °C. The result for `CC(C(=O)O)n1cc(-c2ccc(Oc3ccccc3)cc2)c2c(N)ncnc21` (stereo not drawn) reads 240 to 241 °C. As for `C=CCNC1=NS(=O)(=O)c2cnccc2N1`, the figure is 206 to 208 °C; as for `CC(=O)Nc1cc(O)c(C(=O)NC2CCN(Cc3ccccc3)CC2)cc1[N+](=O)[O-]`, 220 to 222 °C. The result for `Nc1ccc(S(=O)(=O)Nc2cccc(OP(N)(N)=O)c2)cc1` reads 185 to 186 °C.

As for `COc1cc(OC)c2c(=O)cc(-c3ccc(OC)c(I)c3)oc2c1`, the melting point fell in the range of 209 to 210 °C. Consider `NC(=O)CCNc1ccc([N+](=O)[O-])cc1OCCO`, for which the melting point came to 184 °C.

The compound `COc1c(-c2cccs2)ccc2c(OC)c(-c3cccs3)ccc12` displayed a melting point of 225 to 228 °C. The result for `COc1ccc(C=CC(=O)O)cc1-c1cc2c(cc1OCCCCCO)C(C)(C)CCC2(C)C` reads 115 to 117 °C; that for `O=S1(=O)c2cccc3cccc(c23)N1CCN1CCC(CC2Cc3ccccc3C2)CC1`, 126 °C; that for `O=c1c2cc(Oc3ccc(Cl)cc3)ccc2ncn1Cc1cccnc1`, 130 to 133 °C. The result for `COc1cccc(CNC(=O)c2nc3cccc(O)c3c(=O)[nH]2)c1` reads 187 to 189 °C. As for `CC(C)=C1CC(=O)N(c2cc(F)c(C#N)cc2F)C1=O`, the figure is 135 °C. Compound `CCCNC(C)=C1C(=O)OC(=O)C(C(C)=O)=C1O` returned a melting point of 145 to 148 °C.

In the case of `CCOC(=O)CCc1cc(OCOC)nn1Cc1ccc(Cl)cc1Cl`, the melting point fell in the range of 47 to 49 °C. The result for `CC1(C)CC(=O)c2c(NCc3ccccn3)sc(-c3cc[nH]n3)c2C1` reads 210 to 213 °C. The result for `CC(C)n1nc(-c2sc(NC(=O)c3ccc(CNCCN4CCCCC4)cc3)nc2-c2ccccc2)ccc1=O` reads 134 to 136 °C.

With `FC(F)(F)c1ccc(CC(=Nc2ccccc2)NC(=S)NCc2cccnc2)cc1`, the melting point lay within 165 to 166 °C.

The compound `O=C(O)CN1C(=O)C(=O)N(Cc2cccc([N+](=O)[O-])c2)C1=S` showed a melting point of 188 °C.

`COc1ccc(-c2nnc3c4ccccc4c(Nc4cccc(C(=O)Nc5ccc(N(C)C)cc5)c4)nn23)cc1`: the melting point lay in the range of 314 to 318 °C. As for `CSc1ccc(-c2ccc(C(=O)Nc3ccc4cc(CN5CCCC5)cnc4c3C)cc2)cc1`, the figure is 206 to 208 °C. As for `CC(=O)O[C@@H]1C(=O)N[C@@H]1c1ccccc1` (relative stereo), the figure is 150 to 151 °C. `CC1CCC2(CC1)OCCN2C(=O)C(Cl)Cl` (stereo not drawn): the melting point lay within 119 to 120 °C. As for `COc1ccc2[nH]cc(CCc3nc4ccccc4c(=O)n3-c3ccccc3)c2c1`, the figure is 220 to 221 °C. As for `O=C(O)c1nc(Cl)cc([N+](=O)[O-])c1Cl`, the figure is 192 to 193 °C; as for `COC(=O)C1=CCC(NC(C)=O)C1` (stereo not drawn), 72 to 74 °C; as for `N#Cc1ccc(OCC(=O)O)cc1F`, 150 to 152 °C.

The compound `Cc1cc(SCc2sc(-c3ccc(C(F)(F)F)c(F)c3)nc2C)ccc1OCC(=O)O` registered a melting point of less than 50 °C. As for `O=CCOc1cccc(C(=O)O)c1`, the figure is 120 to 130 °C. As for `CC(=O)c1c(C)oc(C)c1C(C)=O`, the figure is 75 to 77 °C; as for `CC(=O)Nc1cc2c(cc1[N+](=O)[O-])OC(C)(C)O2`, 173 to 174 °C; as for `CC(=O)Nc1ccc2c(c1)OC(C)O2` (stereo not drawn), 155 to 156 °C.

Compound `CCCSCc1cc2oc(S(N)(=O)=O)cc2cn1` displayed a melting point of 171 to 172 °C. The result for `Cc1ccnc(NC(=O)c2nnc3ccccc3c2O)c1` reads 339 to 341 °C. As for `CSC[C@H](C)NC(=O)c1c(Cl)cccc1C(=O)Nc1ccc(Cn2c(C)nnc2C(F)(F)F)cc1C`, the figure is 168 to 170 °C; as for `Cc1cc2c(-c3ccccc3)c(CC(=O)NCc3ccccc3)n(C)c(=O)c2cc1C`, 222 °C; as for `C=C[C@@H](C[C@H](O)[C@H](CC1CCCCC1)NC(=O)[C@H](Cc1c[nH]cn1)NC(=O)[C@@H](CC(=O)NN)Cc1ccccc1)C(C)C`, 109 °C. On to `CN(C)c1ccc(C(=O)OC2=C([C@H]3CC[C@H](c4ccc(Cl)cc4)CC3)C(=O)c3ccccc3C2=O)cc1`, for which the melting point was 117 to 121 °C. As for `CSc1nc(-c2ccc(F)cc2)c(-c2ccnc(OC(C)C)c2)[nH]1`, the figure is 141 °C; as for `c1ccc(CSc2cc(SCc3ccccc3)c3ccc4c(SCc5ccccc5)cc(SCc5ccccc5)c5ccc2c3c54)cc1`, 178 to 180 °C; as for `CCON=C(C(=O)OCC)C1=CSc2ccccc2S1`, 78 to 81 °C.

Consider `Nc1c(-c2ccc(Oc3ccccc3)cc2)nc2ccc(C(F)(F)F)cc2c1C(=O)O`, for which the melting point lay in the range of 220 to 225 °C.

For the compound `O=C(Nc1ccccc1)C1=NOCCS1`, the melting point is 109 to 110 °C. The result for `O=C(Nc1ccc[nH]c1=O)c1ccccc1F` reads 223 °C; that for `COc1ccccc1-c1c(C2CCN(C)CC2)[nH]c(=O)c2ccccc12`, 153 to 155 °C.

In turn, `CCCCc1nn(-c2cc(NC(=O)CC)ccc2Br)c(=O)n1Cc1ccc(-c2ccccc2S(=O)(=O)NC(C)(C)C)cc1F` had a melting point of 119 to 121 °C.

On to `CC1CC(C)N(CCCNC(=O)CN2CCCC2=O)C(C)(C)C1` (stereo not drawn), for which the melting point fell in the range of 85 to 87 °C.

`C=C(C(=O)O)c1ccc2c(c1)Cc1ccccc1-2`: the melting point was in the range of 183 to 185 °C. As for `N#CC1=C(C2CCCC2)Nc2n[nH]cc2C1c1cccc2nonc12` (stereo not drawn), the figure is 193 °C; as for `O=C(Nc1cccc(C(F)(F)F)c1)Nc1ccc(Oc2ncnc3ccn(CCOCCO)c23)cc1Cl`, 170 to 174 °C; as for `OC1COc2ccccc2C1` (stereo not drawn), 188 to 193 °C.

In turn, `N#Cc1ccccc1CCc1n[nH]c2c1c(=O)n(-c1ccccc1)c1ncccc21` displayed a melting point of 316 °C. The result for `COC(=O)C1CC(C#N)(c2ccc(OC)c(OC)c2)CCC1=O` (stereo not drawn) reads 102 to 108 °C; that for `CCC1CCc2c(sc3cc(NC(C)=O)ccc3c2=O)C1` (stereo not drawn), 243 °C. The result for `CCC1(CC)C(=O)ON(C(=O)c2ccccc2)C1=O` reads 76 to 79 °C; that for `N#Cc1ccc(N2C(=O)NC(=Cc3ccccc3O)C2=O)c2ccccc12`, 146 to 149 °C.

Source of the values: a melting point compilation (Tetko et al.; mined from patent text by program, amines drawn as free bases though some values may be those of a salt).
